Data: the NIST ThermoML archive (doi:10.1016/j.jct.2017.03.004)

What was measured:
[1] = for viscosity / mass density: 101 kPa, Liquid; for viscosity: Falling or rolling sphere viscometry; for mass density: Vibrating tube method
[2] = activity coefficient (dimensionless); of the first substance listed, at infinite dilution; xn = mol fraction of the nth substance listed; conditions: 101.33 kPa, Liquid, Chromatography, x1 = 0

N#C[N-]C#N.OCCC[n+]1ccccc1 [N-(3-hydroxypropyl)pyridinium dicyanamide]
[1]
Conditions	mass density [kg/m3]	viscosity [mPa·s]
298.15 K	1171.01	115
303.15 K	1167.78	–
308.15 K	1164.58	70.8
313.15 K	1161.4	–
318.15 K	1158.23	47.1
323.15 K	1155.09	–
328.15 K	1151.97	32.9
333.15 K	1148.86	–
338.15 K	1145.77	23.4
343.15 K	1142.69	–
348.15 K	1139.63	17.8
353.15 K	1136.59	–
358.15 K	1133.57	14
363.15 K	1130.58	–
368.15 K	1127.62	–

Conditions	Glass transition temperature [°C]
[1], Glass, DSC	-81

CCCCCCCCC [nonane] + N#C[N-]C#N.OCCC[n+]1ccccc1
[2]
Conditions	activity coefficient
298.15 K	1450
308.15 K	1300
318.15 K	1180
328.15 K	1080
338.15 K	985
348.15 K	906
358.15 K	837

C=CCCCCCC [oct-1-ene] + N#C[N-]C#N.OCCC[n+]1ccccc1
[2]
Conditions	activity coefficient
298.15 K	391
308.15 K	367
318.15 K	346
328.15 K	326
338.15 K	310
348.15 K	295
358.15 K	282

CCCCCCCC [octane] + N#C[N-]C#N.OCCC[n+]1ccccc1
[2]
Conditions	activity coefficient
298.15 K	930
308.15 K	846
318.15 K	772
328.15 K	710
338.15 K	654
348.15 K	605
358.15 K	564

CCCCCO [pentan-1-ol] + N#C[N-]C#N.OCCC[n+]1ccccc1
[2]
Conditions	activity coefficient
318.15 K	4.98
328.15 K	4.89
338.15 K	4.81
348.15 K	4.74
358.15 K	4.68
368.15 K	4.61

CCCC(C)=O [pentan-2-one] + N#C[N-]C#N.OCCC[n+]1ccccc1
[2]
Conditions	activity coefficient
318.15 K	5.58
328.15 K	5.77
338.15 K	5.96
348.15 K	6.14
358.15 K	6.33
368.15 K	6.5

CCC(=O)CC [pentan-3-one] + N#C[N-]C#N.OCCC[n+]1ccccc1
[2]
Conditions	activity coefficient
318.15 K	5.68
328.15 K	5.92
338.15 K	6.15
348.15 K	6.36
358.15 K	6.57
368.15 K	6.79

CCCO [propan-1-ol] + N#C[N-]C#N.OCCC[n+]1ccccc1
[2]
Conditions	activity coefficient
318.15 K	2.03
328.15 K	2.03
338.15 K	2.02
348.15 K	2.02
358.15 K	2.01
368.15 K	2.01

CC(C)O [propan-2-ol] + N#C[N-]C#N.OCCC[n+]1ccccc1
[2]
Conditions	activity coefficient
318.15 K	2.24
328.15 K	2.2
338.15 K	2.18
348.15 K	2.15
358.15 K	2.13
368.15 K	2.11

CCCc1ccccc1 [propylbenzene] + N#C[N-]C#N.OCCC[n+]1ccccc1
[2]
Conditions	activity coefficient
318.15 K	30.5
328.15 K	30.8
338.15 K	31.1
348.15 K	31.3
358.15 K	31.6
368.15 K	31.8

c1ccncc1 [pyridine] + N#C[N-]C#N.OCCC[n+]1ccccc1
[2]
Conditions	activity coefficient
318.15 K	1.39
328.15 K	1.48
338.15 K	1.56
348.15 K	1.64
358.15 K	1.72
368.15 K	1.8

C=Cc1ccccc1 [styrene] + N#C[N-]C#N.OCCC[n+]1ccccc1
[2]
Conditions	activity coefficient
318.15 K	6.93
328.15 K	7.23
338.15 K	7.51
348.15 K	7.79
358.15 K	8.06
368.15 K	8.32

C1CCOC1 [tetrahydrofuran] + N#C[N-]C#N.OCCC[n+]1ccccc1
[2]
Conditions	activity coefficient
318.15 K	3.1
328.15 K	3.25
338.15 K	3.38
348.15 K	3.53
358.15 K	3.66
368.15 K	3.79

c1ccsc1 [thiophene] + N#C[N-]C#N.OCCC[n+]1ccccc1
[2]
Conditions	activity coefficient
318.15 K	2.6
328.15 K	2.71
338.15 K	2.81
348.15 K	2.93
358.15 K	3.03
368.15 K	3.14

Cc1ccccc1 [toluene] + N#C[N-]C#N.OCCC[n+]1ccccc1
[2]
Conditions	activity coefficient
318.15 K	8.44
328.15 K	8.72
338.15 K	9.03
348.15 K	9.31
358.15 K	9.58
368.15 K	9.85

O [water] + N#C[N-]C#N.OCCC[n+]1ccccc1
[2]
Conditions	activity coefficient
328.15 K	0.399
338.15 K	0.411
348.15 K	0.421
358.15 K	0.432
